“And” between values parts separate entries of the source, which are not always exact repeats. Equal entries are not always repeated. Toxic doses and inconclusive results are not listed. Rule for the calls: active = survival T/C of 150% or more; inactive = T/C below 125% in these data.
Tested on: BDF1 mice, B16 melanoma ip, median survival T/C
Assay: NCI In Vivo Anticancer Drug Screen. Data for tumor model B16 Melanoma (intraperitoneal) in B6D2F1 (BDF1) mice
Settings: endpoint: median survival time, higher = longer survival
Summary of the method: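 Transplantable tumor model; survival or tumor size measured; reported as T/C, treated over vehicle control.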

[1] = dose: 25.0 mg/kg/injection, schedule: Q01DX009 (ip), vehicle: saline
[2] = dose: 50.0 mg/kg/injection, schedule: Q01DX009 (ip), vehicle: saline
[3] = dose: 100.0 mg/kg/injection, schedule: Q01DX009 (ip), vehicle: saline
[4] = dose: 25.0 mg/kg/injection, schedule: Q04DX003 (ip), vehicle: saline
[5] = dose: 100.0 mg/kg/injection, schedule: Q04DX003 (ip), vehicle: Klucel (hydroxypropylcellulose) (HPC)
[6] = dose: 200.0 mg/kg/injection, schedule: Q04DX003 (ip), vehicle: Klucel (hydroxypropylcellulose) (HPC)
[7] = dose: 400.0 mg/kg/injection, schedule: Q04DX003 (ip), vehicle: Klucel (hydroxypropylcellulose) (HPC)
[8] = dose: 100.0 mg/kg/injection, schedule: Q01DX009 (ip), vehicle: saline with Tween-80
[9] = dose: 200.0 mg/kg/injection, schedule: Q01DX009 (ip), vehicle: saline with Tween-80
[10] = dose: 6.25 mg/kg/injection, schedule: Q01DX009 (ip), vehicle: Klucel (hydroxypropylcellulose) (HPC)
[11] = dose: 12.5 mg/kg/injection, schedule: Q01DX009 (ip), vehicle: Klucel (hydroxypropylcellulose) (HPC)
[12] = dose: 100.0 mg/kg/injection, schedule: Q01DX009 (ip), vehicle: Klucel (hydroxypropylcellulose) (HPC)
[13] = dose: 200.0 mg/kg/injection, schedule: Q01DX009 (ip), vehicle: Klucel (hydroxypropylcellulose) (HPC)
[14] = dose: 400.0 mg/kg/injection, schedule: Q01DX009 (ip), vehicle: Klucel (hydroxypropylcellulose) (HPC)
[15] = dose: 12.5 mg/kg/injection, schedule: Q01DX009 (ip), vehicle: saline
[16] = dose: 12.5 mg/kg/injection, schedule: Q01DX009 (ip), vehicle: saline with Tween-80
[17] = dose: 12.5 mg/kg/injection, schedule: Q04DX003 (ip), vehicle: saline with Tween-80
[18] = dose: 25.0 mg/kg/injection, schedule: Q01DX009 (ip), vehicle: saline with Tween-80
[19] = dose: 25.0 mg/kg/injection, schedule: Q04DX003 (ip), vehicle: saline with Tween-80
[20] = dose: 50.0 mg/kg/injection, schedule: Q01DX009 (ip), vehicle: saline with Tween-80
[21] = dose: 50.0 mg/kg/injection, schedule: Q04DX003 (ip), vehicle: saline with Tween-80
[22] = dose: 3.12 mg/kg/injection, schedule: Q01DX009 (ip), vehicle: saline with Tween-80
[23] = dose: 3.13 mg/kg/injection, schedule: Q01DX009 (ip), vehicle: saline with Tween-80
[24] = dose: 6.25 mg/kg/injection, schedule: Q01DX009 (ip), vehicle: saline with Tween-80
[25] = dose: 25.0 mg/kg/injection, schedule: Q01DX009 (ip), vehicle: Klucel (hydroxypropylcellulose) (HPC)
[26] = dose: 50.0 mg/kg/injection, schedule: Q01DX009 (ip), vehicle: Klucel (hydroxypropylcellulose) (HPC)

Measured: T/C

CCNCCNC
inactive: [1] 109 % of control | [2] 98 % of control | [3] 86 % of control

CC1(C)N=C(N)N=C(N)N1c1ccc(OCCOc2ccc(S(=O)(=O)F)cc2)c(Cl)c1
inactive: dose: 12.5 mg/kg/injection, schedule: Q04DX003 (ip), vehicle: saline 107 % of control | [4] 121 % of control

CCc1ccc(NC(=O)Nc2ccccc2C)cc1
inactive: [5] 96 % of control | [6] 96 % of control | [7] 100 % of control

Clc1ccc2c(c1)C([P+](c1ccccc1)(c1ccccc1)c1ccccc1)c1cc(Cl)cc(Cl)c1-2 (stereo unspecified)
inactive: [8] 89 % of control | [9] 95 % of control | dose: 400.0 mg/kg/injection, schedule: Q01DX009 (ip), vehicle: saline with Tween-80 89 % of control

Nc1ccccc1SC1CC(=O)N(c2cccc3ccccc23)C1=O (stereo unspecified)
inactive: dose: 1.56 mg/kg/injection, schedule: Q01DX009 (ip), vehicle: Klucel (hydroxypropylcellulose) (HPC) 98 % of control | dose: 3.12 mg/kg/injection, schedule: Q01DX009 (ip), vehicle: Klucel (hydroxypropylcellulose) (HPC) 96 % of control | [10] 88 % of control and 94 % of control | [11] 86 % of control | [12] 94 % of control and 96 % of control | [5] 100 % of control | [13] 92 % of control | [6] 100 % of control | [14] 92 % of control | [7] 93 % of control

O=C(O)C1=CCC=CC1
inactive: dose: 100.0 mg/kg/injection, schedule: Q04DX003 (ip), vehicle: saline with Tween-80 100 % of control | dose: 200.0 mg/kg/injection, schedule: Q04DX003 (ip), vehicle: saline with Tween-80 103 % of control | dose: 400.0 mg/kg/injection, schedule: Q04DX003 (ip), vehicle: saline with Tween-80 96 % of control

CSc1ccc(NC(=O)Nc2ccccc2)cc1
inactive: [12] 102 % of control | [13] 98 % of control | [14] 95 % of control

CCC(=O)c1ccc2c(c1)N(CCCN1CCN(CCO)CC1)c1ccccc1S2
inactive: dose: 0.25 mg/kg/injection, schedule: Q01DX009 (ip), vehicle: saline 100 % of control | dose: 0.5 mg/kg/injection, schedule: Q01DX009 (ip), vehicle: saline 95 % of control | dose: 1.0 mg/kg/injection, schedule: Q01DX009 (ip), vehicle: saline 92 % of control | dose: 2.0 mg/kg/injection, schedule: Q01DX009 (ip), vehicle: saline 89 % of control | dose: 4.0 mg/kg/injection, schedule: Q01DX009 (ip), vehicle: saline 105 % of control

c1ccc(CN2CCNCC2)cc1
inactive: dose: 6.25 mg/kg/injection, schedule: Q01DX009 (ip), vehicle: saline 108 % of control | [15] 108 % of control | [1] 106 % of control

CC[N+](CC)(CC)CC.N#C/C([SH2+])=C(/[SH2+])C#N.N#C/C([SH2+])=C(/[SH2+])C#N.[Cu+2]
inactive: dose: 12.5 mg/kg/injection, schedule: Q04DX003 (ip), vehicle: Klucel (hydroxypropylcellulose) (HPC) 92 % of control | dose: 25.0 mg/kg/injection, schedule: Q04DX003 (ip), vehicle: Klucel (hydroxypropylcellulose) (HPC) 89 % of control

Cc1cc(NC(=O)NCc2ccc(N3C(N)=NC(N)=NC3(C)C)cc2)ccc1S(=O)(=O)F
inactive: [4] 97 % of control | dose: 50.0 mg/kg/injection, schedule: Q04DX003 (ip), vehicle: saline 109 % of control | dose: 400.0 mg/kg/injection, schedule: Q04DX003 (ip), vehicle: saline 122 % of control

CCOC(=O)c1c[nH]c2oc(/C=N/N3CC(CN4CCOCC4)OC3=O)cc2c1=O (stereo unspecified)
inactive: [15] 95 % of control | [1] 98 % of control | [2] 97 % of control | [3] 105 % of control

Cc1nc2[nH]c(=O)[nH]c(=O)c2[nH]1
inactive: [16] 111 % of control | [17] 105 % of control | [18] 100 % of control | [19] 108 % of control | [20] 102 % of control | [21] 105 % of control

COc1cc(C=Nc2cccc(C(F)(F)F)c2)ccc1O
inactive: [12] 99 % of control | [13] 94 % of control

CC12COC(=O)CC1CCC1C2CCC2(C)C1CCC2(C)O (stereo unspecified)
inactive: [20] 94 % of control | [8] 94 % of control | [9] 88 % of control

CCCN(C)N=Nc1ccccc1C(=O)O
inactive: dose: 1.56 mg/kg/injection, schedule: Q01DX009 (ip), vehicle: saline with Tween-80 100 % of control | [22] 103 % of control | [23] 111 % of control | [10] 116 % of control | [24] 101 % of control and 102 % of control | [11] 110 % of control | [16] 98 % of control and 102 % of control and 105 % of control | [25] 104 % of control | [18] 102 % of control and 107 % of control and 115 % of control | [26] 107 % of control | [20] 100 % of control

Cc1c(N=O)c(=O)n(-c2ccccc2)n1C
inactive: [5] 100 % of control | [6] 100 % of control | [7] 106 % of control

c1ccc(COCCNCCOCc2ccccc2)cc1
inactive: [11] 100 % of control | [25] 90 % of control | [26] 103 % of control

ClN=C(c1ccccc1)c1ccccc1
inactive: [25] 105 % of control | [26] 105 % of control

CC(CN(C)C)CN1c2ccccc2Sc2ccccc21 (stereo unspecified)
inactive: [16] 104 % of control | [18] 101 % of control

Cc1cccc2c(C(=O)O)cc(-c3ccc(Cl)cc3)nc12
inactive: [16] 97 % of control | [18] 97 % of control | [20] 95 % of control

Cc1ccc2c([N+](=O)[O-])cccc2n1
inactive: [25] 107 % of control | [26] 93 % of control | [12] 98 % of control

CCc1ccccc1NC(=O)Nc1ccc(OC)cc1
inactive: [25] 95 % of control | [26] 87 % of control

CCCCCCCCSC1=C(Cl)C(=O)C(OC)=C(OC)C1=O
inactive: [23] 88 % of control

C[CH2][Pb]([Br])([CH2]C)[CH2]C
inactive: [22] 91 % of control | [24] 94 % of control | [16] 89 % of control | [18] 94 % of control

CCOC(CNC(=O)OCc1ccccc1)OCC
inactive: [12] 93 % of control | [13] 93 % of control | [14] 90 % of control

COc1c(NC(=O)CC(C)=O)cccc1NC(=O)CC(C)=O
inactive: [26] 120 % of control | [12] 104 % of control | [13] 97 % of control

CC(C)Cc1ccc(OC(=O)Nc2ccc(Cl)cc2)cc1
inactive: [24] 97 % of control | [16] 100 % of control | [18] 91 % of control and 98 % of control

NC(=O)c1ncn(C2OC(CO)C(O)C2O)n1 (stereo unspecified)
inactive: dose: 20.0 mg/kg/injection, schedule: Q01DX009 (ip), vehicle: saline 90 % of control | dose: 40.0 mg/kg/injection, schedule: Q01DX009 (ip), vehicle: saline 102 % of control | dose: 50.0 mg/kg/injection, schedule: Q04DX003 (ip), vehicle: Klucel (hydroxypropylcellulose) (HPC) 102 % of control | dose: 80.0 mg/kg/injection, schedule: Q01DX009 (ip), vehicle: saline 97 % of control | [5] 95 % of control | dose: 160.0 mg/kg/injection, schedule: Q01DX009 (ip), vehicle: saline 108 % of control | [6] 98 % of control

O=C(Nc1cc(C(F)(F)F)ccc1Cl)c1ccc(Cl)cc1
inactive: [12] 104 % of control | [13] 100 % of control | [14] 103 % of control

O=C(O)CC(Br)C(=O)c1ccccc1 (stereo unspecified)
inactive: [17] 93 % of control | [19] 86 % of control | [21] 88 % of control

O=C1CN(CN2CCOCC2)C(=O)CN1CN1CCOCC1
inactive: [15] 98 % of control | [1] 102 % of control | [2] 112 % of control | [3] 104 % of control | dose: 200.0 mg/kg/injection, schedule: Q01DX009 (ip), vehicle: saline 101 % of control

From PubChem BioAssay AID192 (DTP/NCI, 2004)
